Residue numbers refer to the chain shown, from its start.
How the values were obtained:
TauT L306A mutant = biological target: T1, TauT L306A mutant (Homo sapiens, UniProt P31641, L306A); assay: MST binding, TauT L306A; conditions: mean ± s.e.m., n=3
T1 sequence (P31641 1-620 L306A): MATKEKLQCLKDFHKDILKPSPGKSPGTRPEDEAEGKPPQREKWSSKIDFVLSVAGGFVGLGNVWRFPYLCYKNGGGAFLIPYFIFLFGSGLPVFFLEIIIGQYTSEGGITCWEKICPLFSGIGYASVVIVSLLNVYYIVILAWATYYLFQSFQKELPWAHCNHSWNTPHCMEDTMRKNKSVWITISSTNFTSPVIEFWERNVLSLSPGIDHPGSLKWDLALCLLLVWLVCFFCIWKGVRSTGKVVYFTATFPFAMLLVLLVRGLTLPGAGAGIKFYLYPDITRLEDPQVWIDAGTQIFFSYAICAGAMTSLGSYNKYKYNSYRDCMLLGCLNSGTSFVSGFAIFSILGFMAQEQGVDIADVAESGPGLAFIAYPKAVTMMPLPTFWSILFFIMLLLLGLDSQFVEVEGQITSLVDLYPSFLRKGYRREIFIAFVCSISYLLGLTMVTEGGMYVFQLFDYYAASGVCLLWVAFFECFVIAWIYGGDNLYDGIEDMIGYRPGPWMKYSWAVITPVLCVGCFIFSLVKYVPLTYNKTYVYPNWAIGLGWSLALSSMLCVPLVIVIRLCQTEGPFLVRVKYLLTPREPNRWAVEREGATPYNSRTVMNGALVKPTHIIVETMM

TauT^WT and variants [1] = biological target: T2, TauT^WT and variants (Homo sapiens, UniProt P31641, L134C); assay: GAA uptake assay; type: cell-based; conditions: mutation Leu134Cys
T2 sequence (P31641 1-620 L134C): T1 sequence (P31641 1-620 L306A) with L134C, A306L

TauT^WT and variants [2] = assay: GAA uptake assay; type: cell-based, human; conditions: amino acid substitutions in Gly57, Phe58, Leu306
TauT S402A mutant = biological target: T3, TauT S402A mutant (Homo sapiens, UniProt P31641, S402A); assay: MST binding, TauT S402A; conditions: mean ± s.e.m., n=3
T3 sequence (P31641 1-620 S402A): T1 sequence (P31641 1-620 L306A) with A306L, S402A

TauT^EM = biological target: T4, TauT^EM (Homo sapiens, UniProt P31641, D486N/D490E/E493R/G491D/K319H/L488F/N487R/R499P/S322V/Y320N/Y489S/Y498F); assay: MST binding, TauT^EM; conditions: compared with TauT^WT
T4 sequence (P31641 1-620 K319H/Y320N/S322V/D486N/N487R/L488F/Y489S/D490E/G491D/E493R/Y498F/R499P): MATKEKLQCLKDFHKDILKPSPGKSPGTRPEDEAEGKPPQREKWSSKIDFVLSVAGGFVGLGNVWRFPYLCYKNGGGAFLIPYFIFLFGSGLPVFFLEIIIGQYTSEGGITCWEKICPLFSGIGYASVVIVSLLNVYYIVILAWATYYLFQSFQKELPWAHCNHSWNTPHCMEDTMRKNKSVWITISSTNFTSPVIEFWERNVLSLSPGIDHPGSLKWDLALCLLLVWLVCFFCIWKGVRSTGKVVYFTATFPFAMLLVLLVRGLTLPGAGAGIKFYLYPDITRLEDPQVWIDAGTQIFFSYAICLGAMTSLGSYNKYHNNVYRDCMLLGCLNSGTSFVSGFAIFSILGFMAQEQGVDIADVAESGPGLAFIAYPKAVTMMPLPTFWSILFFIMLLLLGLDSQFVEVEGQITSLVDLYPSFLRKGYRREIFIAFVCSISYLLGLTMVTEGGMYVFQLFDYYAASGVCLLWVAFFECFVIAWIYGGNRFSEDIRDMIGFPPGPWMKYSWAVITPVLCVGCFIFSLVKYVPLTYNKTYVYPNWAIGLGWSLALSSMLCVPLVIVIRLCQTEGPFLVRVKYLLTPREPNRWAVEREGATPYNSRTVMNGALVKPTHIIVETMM

SMILES | Kd (MST) (TauT L306A mutant) | transport activity of GAA (TauT^WT and variants [1]) | transport activity for GAA (TauT^WT and variants [2]) | Kd (MST) (TauT S402A mutant) | binding affinity (Kd, MST) of TauT^EM (TauT^EM)
[H]/N=C(/N)NCC(=O)O [GAA, guanidinoacetate] | drastic loss of GAA binding affinity | greater transport activity | decrease in transport activity |  | 
NCCS(=O)(=O)O [Taurine, taurine] |  |  |  | undetectable binding | analogous to those of TauT^WT
